Reference: ChEMBL document CHEMBL1152525, “Synthesis and anti-HIV activity of novel 2',3'-dideoxy-3'-thiacytidine prodrugs” (Bioorg Med Chem, 2009)

Tests used:
[1] = system: Human immunodeficiency virus 1; test: microbe, parasite or virus in culture; settings: Human immunodeficiency virus 1, 168 h
Description: Antiviral activity against HIV1 infected in human PBMC assessed as inhibition of viral p24 antigen production after 7 days by ELISA

in vitro = settings: human, PBMC
Description: Cytotoxicity against human PBMC after 7 days by sulforhodamine B assay

physchem = settings: octanol/water
Description: Lipophilicity, log P of the compound

| IC50 [1] | logP (physchem) | Structure (SMILES) | CC50 at 168 h (in vitro) |
| --- | --- | --- | --- |
| 0.2 µM | 1.72 | CCCCCCCCOC(=O)OC[C@H]1O[C@@H](n2ccc(N)nc2=O)CS1 | 450 µM |
| 0.2 µM | 0.86 | CCCCOC(=O)OC[C@H]1O[C@@H](n2ccc(N)nc2=O)CS1 | 4500 µM |
| 0.25 µM | 1.57 | CCCCCCOC(=O)OC[C@H]1O[C@@H](n2ccc(N)nc2=O)CS1 | 857 µM |
| 0.3 µM | 0.2 | CCCOC(=O)OC[C@H]1O[C@@H](n2ccc(N)nc2=O)CS1 | 3330 µM |
| 0.065 µM | 1.23 | CCCCCOC(=O)OC[C@H]1O[C@@H](n2ccc(N)nc2=O)CS1 | 1290 µM |
| 1.27 µM | -0.15 | CC(C)CCOC(=O)OC[C@H]1O[C@@H](n2ccc(N)nc2=O)CS1 | 3330 µM |
| 0.2 µM | -0.31 | CCOC(=O)OC[C@H]1O[C@@H](n2ccc(N)nc2=O)CS1 | 3000 µM |
